In ChEMBL document CHEMBL1132385 (J Med Chem, 1999) one finds Ki data, which are given here for 14 compounds.

For the assay, the target named is Neuronal acetylcholine receptor. The assay can be described thus: Evaluated for its binding affinity towards Nicotinic acetylcholine receptor in rat brain homogenate. It counts as tissue-based.
Take `CN1CCCCC1CCc1ccccc1` (centres undefined): the Ki stood at 2490 nM.
For `C[N+]1(C)[C@@H](CC(=O)c2ccccc2)CCC[C@H]1C[C@H](O)c1ccccc1` the value was 2030 nM.
Take `CN1[C@@H](CC(=O)c2ccccc2)CCC[C@H]1C[C@H](Cl)c1ccccc1`: affinity was put at a Ki of 5 nM.
For `CN1[C@@H](CC(=O)c2ccccc2)CCC[C@H]1CC(=O)c1ccccc1` the value was 7800 nM; for `CN1[C@@H](CCc2ccccc2)CCC[C@H]1C[C@H](O)c1ccccc1`, 235 nM.
Regarding `CN(CCC(=O)c1ccccc1)CCC(=O)c1ccccc1`, the Ki was > 10000 nM.
`CN1[C@@H](CCc2ccccc2)CCC[C@H]1CCc1ccccc1` [LOBELANE]: the Ki is > 10000 nM.
For the compound `CN1CCCC[C@H]1C[C@H](O)c1ccccc1`, the Ki is > 10000 nM.
In the case of `CN1[C@H](CCc2ccccc2)CCC[C@@H]1C[C@@H](O)c1ccccc1` [8R-hydroxylobelane], the Ki turned out to be 340 nM.
For `CN1[C@@H](CC(=O)c2ccccc2)CCC[C@H]1/C=C/c1ccccc1` the value was 1080 nM; for `CN1[C@@H](C[C@@H](O)c2ccccc2)CCC[C@H]1C[C@H](O)c1ccccc1`, 300 nM; for `CN(C)CCC(O)c1ccccc1` (centres undefined), > 10000 nM.
As for `CN(CCCc1ccccc1)CCCc1ccccc1`, the figure is > 10000 nM; as for `CN1[C@H](CCc2ccccc2)CCC[C@@H]1CC(=O)c1ccccc1`, 110 nM.

One may read the Ki as the equilibrium dissociation constant of an inhibitor or competing ligand from its target. Read a high Ki as a looser hold on the target.
